Laboratory results taken from ChEMBL document CHEMBL3217693, “Synthesis and biological evaluation of 7-arylindoline-1-benzenesulfonamides as a novel class of potent anticancer agents” (Medchemcomm, 2010).

Tests used:
[1] = Antiproliferative activity against human H460 cells assessed as inhibition of cell growth after 72 hrs by methylene blue dye assay; assay type: functional, cell-based; conditions: NCI-H460, 72 h
[2] = Antiproliferative activity against human KB-VIN10 cells overexpressing P-gp 170/MDR assessed as inhibition of cell growth after 72 hrs by methylene blue dye assay; assay type: functional, cell-based; conditions: KB-VIN10, 72 h
HT-29 = test: Antiproliferative activity against human HT-29 cells assessed as inhibition of cell growth after 72 hrs by methylene blue dye assay; assay type: functional, cell-based; conditions: HT-29, 72 h
KB = test: Antiproliferative activity against human KB cells assessed as inhibition of cell growth after 72 hrs by methylene blue dye assay; assay type: functional, cell-based
[3] = Antiproliferative activity against human MKN45 cells assessed as inhibition of cell growth after 72 hrs by methylene blue dye assay; assay type: functional, cell-based; conditions: MKN-45, 72 h
Tubulin [4] = biological target: T1, Tubulin (UniProt P68371+Q9H4B7+P0DPH7+P68366+Q13509+Q71U36+P04350+Q3ZCM7+P07437+P68363+Q9BQE3+Q6PEY2+Q13885+Q9BVA1+Q9BUF5); test: Displacement of [3H]colchicine from long-chain biotin-labeled tubulin (unknown origin) at 1 uM after 2 hrs by competition binding scintillation proximity assay; assay type: protein-complex assay; conditions: Homo sapiens
Tubulin [5] = biological target: Tubulin (Bos taurus, UniProt Q6B856+Q862L2+Q862F3); test: Inhibition of bovine brain microtubule-associated protein rich tubulin polymerization by turbidimetric assay
Tubulin [6] = biological target: T1, Tubulin; test: Displacement of [3H]colchicine from long-chain biotin-labeled tubulin (unknown origin) at 5 uM after 2 hrs by competition binding scintillation proximity assay; assay type: protein-complex assay; conditions: Homo sapiens

Compound	IC50 [1]	IC50 [2]	IC50 (HT-29)	IC50 (KB)	IC50 [3]	inhibition (Tubulin [4])	IC50 (Tubulin [5])	inhibition (Tubulin [6])
COc1ccc(S(=O)(=O)N2CCc3cccc(-c4c(F)c(F)c(F)c(F)c4F)c32)cc1	4760 nM	4630 nM	3900 nM	4040 nM	1780 nM	–	–	–
COc1ccc(S(=O)(=O)N2CCc3cccc(-c4ccc(O)cc4)c32)cc1	114 nM	123 nM	133 nM	129 nM	82.6 nM	–	–	–
COc1ccc(-c2cccc3c2N(S(=O)(=O)c2ccc(OC)cc2)CC3)cc1	302 nM	352 nM	277 nM	337 nM	211 nM	–	–	–
COc1ccc(S(=O)(=O)N2CCc3cccc(-c4cccc(F)c4)c32)cc1	166 nM	92.4 nM	119 nM	98.5 nM	84.7 nM	–	–	–
COc1ccc(S(=O)(=O)N2CCc3cccc(-c4ccc(N)cc4)c32)cc1	288 nM	262 nM	300 nM	249 nM	162 nM	–	–	–
COc1ccc(S(=O)(=O)N2CCc3cccc(-c4ccc([N+](=O)[O-])cc4)c32)cc1	53.1 nM	51.3 nM	51.8 nM	52.5 nM	34 nM	56%	1700 nM	74%
COc1ccc(S(=O)(=O)N2CCc3cccc(-c4ccco4)c32)cc1	94.5 nM	79.2 nM	62.5 nM	82 nM	42 nM	43%	2600 nM	68%
COc1ccc(S(=O)(=O)N2CCc3cccc(-c4ccc(F)cc4)c32)cc1	95.5 nM	94.6 nM	85.5 nM	86 nM	79 nM	59%	2500 nM	73%
COc1cc2c(c(OC)c1OC)-c1ccc(OC)c(=O)cc1[C@@H](NC(C)=O)CC2 [COLCHICINE]	–	121 nM	–	–	–	–	–	–
COc1ccc(S(=O)(=O)N2CCc3cccc(-c4ccc(N(C)C)cc4)c32)cc1	556 nM	553 nM	467 nM	538 nM	237 nM	–	–	–
COc1ccc(S(=O)(=O)N2CCc3cccc(-c4cccnc4)c32)cc1	89.6 nM	84.5 nM	76.3 nM	95.9 nM	68.5 nM	–	–	–
COc1ccc(S(=O)(=O)N2CCc3cccc(-c4ccncc4)c32)cc1	101 nM	106 nM	87.5 nM	96 nM	69.5 nM	54%	2200 nM	72%
COc1ccc(S(=O)(=O)N2CCc3cccc(-c4cc(OC)c(OC)c(OC)c4)c32)cc1	6340 nM	4670 nM	5100 nM	3690 nM	1080 nM	–	–	–
COc1ccc(S(=O)(=O)N2CCc3cccc(-c4ccc(F)nc4)c32)cc1	135 nM	151 nM	108 nM	143 nM	145 nM	–	–	–
COc1ccc(S(=O)(=O)N2CCc3cccc(-c4ccc(F)c(F)c4)c32)cc1	46 nM	46 nM	57 nM	45 nM	55.5 nM	52%	2300 nM	72%
COc1ccc(S(=O)(=O)N2CCc3cccc(-c4cccs4)c32)cc1	229 nM	251 nM	200 nM	214 nM	165 nM	–	–	–
COc1ccc(S(=O)(=O)N2CCc3cccc(-c4ccc(C#N)cc4)c32)cc1	29.5 nM	29.2 nM	24.2 nM	31.1 nM	17.2 nM	81%	1500 nM	92%
COc1ccc(S(=O)(=O)N2CCc3cccc(-c4ccccc4)c32)cc1	212 nM	107 nM	96.5 nM	120 nM	117 nM	–	–	–
